For one experiment, the target named is T1, 5HT-transporter (Homo sapiens, UniProt P31645).
T1 construct: Human platelet membranes (Oceanix Biosciences Corporation, Hanover, Md., USA) were thawed; tissue Oceanix Biosciences Corporation, Hanover, Md., USA; host or cells: human platelet membranes
Briefly: Binding experiment for the 5HT-transporter ([3H]paroxetine, human platelet membranes). The note with it: [3H]paroxetine 0.5 nM, 60 min at 25° C.; for IC50: read-out: h-5HTT pIC50 (converted). As to the method: (§1) The interaction of the compounds of Formula (I) with α2C-adrenoceptor receptors was assessed in in vitro radioligand binding experiments. In general, a low concentration of a radioligand with a high binding affinity for a particular receptor or transporter is incubated with a sample of a tissue preparation enriched in a particular receptor or transporter or with a preparation of cells expressing cloned human receptors in a buffered medium. During the incubation, the radioligand binds to the receptor or transporter. When equilibrium of binding is reached, the receptor bound radioactivity is separated from the non-bound radioactivity, and the receptor- or transporter-bound activity is counted. The interaction of the test compounds with the receptor is assessed in competition binding experiments. Various concentrations of the test compound are added to the incubation mixture containing the receptor- or transporter preparation and the radioligand. The test compound in proportion to its binding affinity and its concentration inhibits binding of the radioligand. The radioligand used for […] receptor binding was [^3H]-raulwolscine.
Human platelet membranes (Oceanix Biosciences Corporation, Hanover, Md., USA) were thawed, diluted in buffer (Tris-HCl 50 mM, 120 mM NaCl and 5 mM KCl) and quickly (max 3 s) homogenised with an Ultraturrax homogenizer. […] Incubation was stopped by rapid filtration of the incubation mixture over GF/B filters, pre-wetted with 0.1% polyethyleneamine, using a Filtermate196 harvester (Packard, Meriden, Conn.). Filters were rinsed extensively with ice-cold buffer and radioactivity on the filters was counted in a Topcount liquid scintillation counter (Packard, Meriden, Conn.). Data were expressed as cpm. Imipramine (at 1 μM final concentration) was used to determine the non-specific binding.
(§2) Data from assays in the presence of compound were calculated as a percentage of total binding measured in the absence of test compound. Inhibition curves, plotting percent of total binding versus the log value of the concentration of the test compound, were automatically generated, and sigmoidal inhibition curves were fitted using non-linear regression. The pIC50 values of test compounds were derived from individual curves.

In experiment [1] the target is T2, human adrenergic-α2A receptor (Homo sapiens, UniProt P08913).
T2 construct: expressed in transfected cells; host or cells: CHO cells, stably transfected; membrane preparation
T2 sequence (P08913 1-465): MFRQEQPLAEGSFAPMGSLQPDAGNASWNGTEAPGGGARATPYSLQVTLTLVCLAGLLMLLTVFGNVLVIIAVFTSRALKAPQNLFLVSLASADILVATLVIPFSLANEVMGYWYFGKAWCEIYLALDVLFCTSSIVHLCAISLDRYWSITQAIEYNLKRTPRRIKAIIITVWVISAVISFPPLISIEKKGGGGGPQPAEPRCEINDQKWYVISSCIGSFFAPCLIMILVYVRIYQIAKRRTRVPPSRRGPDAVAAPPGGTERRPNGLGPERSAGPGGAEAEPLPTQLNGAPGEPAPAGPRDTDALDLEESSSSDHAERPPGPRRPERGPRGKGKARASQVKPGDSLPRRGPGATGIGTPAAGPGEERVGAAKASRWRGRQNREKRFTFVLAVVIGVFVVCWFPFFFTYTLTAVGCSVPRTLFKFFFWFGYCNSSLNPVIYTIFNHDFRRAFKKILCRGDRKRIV
Nature of the experiment: Radioligand binding experiment for hα2A-adrenergic receptor ([3H]raulwolscine). The note with it: [3H]raulwolscine 1 nM, 60 minutes at 25° C.; for IC50: read-out: h-α2A pIC50 (converted). As for the experimental part: as §1
(§3) CHO cells, stabile transfected with human adrenergic-α2A, -α2B or α2C receptor cDNA, were cultured in Dulbecco's Modified Eagle's Medium (DMEM)/Nutrient mixture Ham's F12 (ratio 1:1)(Gibco, Gent-Belgium) supplemented with 10% heat inactivated fetal calf serum (Life Technologies, Merelbeke-Belgium) and antibiotics (100 IU/ml penicillin G, 100 μg/ml streptomycin sulphate, 110 μg/ml pyruvic acid and 100 μg/ml L-glutamine). One day before collection, cells were induced with 5 mM sodiumbutyrate. Upon 80-90% of confluence, cells were scraped in phosphate buffered saline without Ca^2+ and Mg^2+ and collected by centrifugation at 1500×g for 10 minutes. The cells were homogenised in Tris-HCl 50 mM using an Ultraturrax homogenizer and centrifuged for 10 minutes at 23,500×g. The pellet was washed once by resuspension and rehomogenization and the final pellet was resuspended in Tris-HCl, divided in 1 ml aliquots and stored at −70° C.
(§4) Membranes were thawed and re-homogenized in incubation buffer (glycylglycine 25 mM, pH 8.0). In a total volume of 500 μl, 2-10 μg protein was incubated with [^3H]raulwolscine (NET-722) (New England Nuclear, USA) (1 nM final concentration) with or without competitor for 60 minutes at 25° C. followed by rapid filtration over GF/B filter using a Filtermate196 harvester (Packard, Meriden, Conn.). Filters were rinsed extensively with ice-cold rinsing buffer (Tris-HCl 50 mM pH 7.4). Filter-bound radioactivity was determined by scintillation counting in a Topcount (Packard, Meriden, Conn.) and results were expressed as counts per minute (cpm). Non-specific binding was determined in the presence of 1 μM oxymetazoline for hα2A- and hα2B receptors and 1 μM spiroxatrine for hα2C receptors.
as §2

The target in experiment [2] is T3, human adrenergic-α2C receptor (Homo sapiens, UniProt P18825).
T3 construct: expressed in transfected cells; host or cells: CHO cells, stably transfected; membrane preparation
T3 sequence (P18825 1-462): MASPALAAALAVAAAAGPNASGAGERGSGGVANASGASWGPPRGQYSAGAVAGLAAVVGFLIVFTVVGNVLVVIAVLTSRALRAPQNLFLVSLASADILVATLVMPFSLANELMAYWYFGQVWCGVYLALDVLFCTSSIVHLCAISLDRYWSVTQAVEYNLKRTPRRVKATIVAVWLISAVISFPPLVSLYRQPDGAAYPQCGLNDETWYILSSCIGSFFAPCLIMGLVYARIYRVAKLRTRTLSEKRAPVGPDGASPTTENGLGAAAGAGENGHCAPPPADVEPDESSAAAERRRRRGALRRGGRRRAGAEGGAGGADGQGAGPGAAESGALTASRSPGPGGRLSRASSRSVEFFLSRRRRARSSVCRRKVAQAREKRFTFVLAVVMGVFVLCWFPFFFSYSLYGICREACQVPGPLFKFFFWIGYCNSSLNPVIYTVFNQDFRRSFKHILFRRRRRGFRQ
Briefly: Radioligand binding experiment for hα2C-adrenoceptor ([3H]raulwolscine). The note with it: [3H]raulwolscine 1 nM, 60 minutes at 25° C.; for IC50: read-out: h-α2C pIC50 (converted). As for the experimental part:
as §1, §3, §4, §2

Experimental findings from US20080269251A1, “Substituted Pyrazinone Derivatives as Alpha2C-Adrenoreceptor Antagonists” (priority 2005, published 2008) are described below.

T1 sequence (P31645 whole entry): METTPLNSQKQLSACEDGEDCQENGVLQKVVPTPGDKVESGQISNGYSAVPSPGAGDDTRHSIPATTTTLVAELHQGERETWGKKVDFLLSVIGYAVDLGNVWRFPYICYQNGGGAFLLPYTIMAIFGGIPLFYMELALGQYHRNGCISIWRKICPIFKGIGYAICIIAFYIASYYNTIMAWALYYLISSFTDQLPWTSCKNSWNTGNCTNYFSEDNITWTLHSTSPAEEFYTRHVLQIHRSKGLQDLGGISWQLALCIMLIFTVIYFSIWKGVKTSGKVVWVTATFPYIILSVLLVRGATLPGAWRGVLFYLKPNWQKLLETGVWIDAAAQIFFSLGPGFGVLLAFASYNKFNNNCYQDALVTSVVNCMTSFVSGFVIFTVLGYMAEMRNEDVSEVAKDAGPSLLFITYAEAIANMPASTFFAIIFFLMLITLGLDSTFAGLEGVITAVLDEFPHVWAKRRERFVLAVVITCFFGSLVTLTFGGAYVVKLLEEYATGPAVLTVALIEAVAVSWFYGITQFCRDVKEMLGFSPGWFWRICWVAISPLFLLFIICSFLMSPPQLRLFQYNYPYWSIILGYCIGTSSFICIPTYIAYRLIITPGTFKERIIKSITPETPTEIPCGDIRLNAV

Take `O=C(NCc1ccc(-n2ccnc(NC3CCN(Cc4ccc5ccccc5c4)CC3)c2=O)cc1)Nc1cc(Cl)ccc1Cl` [1-54]: the “h-5HTT pIC50” value at 5HT-transporter is 6.8. For the same molecule, the “h-α2A pIC50” value in experiment [1] came to 6.0. Besides, the “h-α2C pIC50” value in experiment [2] is reported as 6.7.
For `CCOC(=O)N1CCC(NC(=O)NCc2ccc(-n3ccnc(NC4CCN(Cc5ccc6ccccc6c5)CC4)c3=O)cc2)CC1` [1-55], the IC50 on 5HT-transporter is 63.1 nM; in experiment [1], 631 nM; in experiment [2], 100 nM.
For `NC(=O)CCNCc1ccc(-n2ccnc(NC3CCN(Cc4ccc5ccccc5c4)CC3)c2=O)cc1` [1-56], the IC50 on 5HT-transporter was 15.8 nM; in experiment [1] it was 251 nM; in experiment [2], 25.1 nM.
Taken in the same sequence, the figures for `CN(CC(=O)N(C)C)Cc1ccc(-n2ccnc(NC3CCN(Cc4ccc5ccccc5c4)CC3)c2=O)cc1` [1-57] were 50.1 nM, 251 nM and 15.8 nM.
Turning to `CCN(CC)CCC(=O)NCc1ccc(-n2ccnc(NC3CCN(Cc4ccc5ccccc5c4)CC3)c2=O)cc1` [1-58], the IC50 was 6.31 nM at 5HT-transporter, 79.4 nM in experiment [1] and 7.94 nM in experiment [2].
The matching figures for `CN(C)C(=O)CCC(=O)NCc1ccc(-n2ccnc(NC3CCN(Cc4ccc5ccccc5c4)CC3)c2=O)cc1` [1-59]: 31.6 nM, 316 nM and 39.8 nM.
Taken in the same sequence, the figures for `CC(=O)NCCN(C)Cc1ccc(-n2ccnc(NC3CCN(Cc4ccc5ccccc5c4)CC3)c2=O)cc1` [1-60] were 10 nM, 200 nM and 25.1 nM.
Taken in the same sequence, the figures for `CC(=O)NCCNCc1ccc(-n2ccnc(NC3CCN(Cc4ccc5ccccc5c4)CC3)c2=O)cc1` [1-61] were 10 nM, 200 nM and 12.6 nM.
Turning to `CC(=O)NCCCC(=O)NCc1ccc(-n2ccnc(NC3CCN(Cc4ccc5ccccc5c4)CC3)c2=O)cc1` [1-62], the “h-5HTT pIC50” value at 5HT-transporter is 7.5. Moreover, the “h-α2A pIC50” value in experiment [1] is reported as 6.4. In experiment [2], the “h-α2C pIC50” value turned out to be 7.3.
On to `CN(C(=O)Cn1ccnc(NC2CCN(Cc3ccc4ccccc4c3)CC2)c1=O)c1ccccc1` [1-63], for which the IC50 at 5HT-transporter was 63.1 nM; in experiment [1], 158 nM; in experiment [2], 25.1 nM.
Taken in the same sequence, the figures for `O=C(Cn1ccnc(NC2CCN(Cc3ccc4ccccc4c3)CC2)c1=O)Nc1ccccc1` [1-64] were 126 nM, 158 nM and 31.6 nM.
Taken in the same sequence, the figures for `O=C(Cn1ccnc(NC2CCN(Cc3ccc4ccccc4c3)CC2)c1=O)Nc1ccc(F)cc1` [1-65] were 158 nM, 158 nM and 39.8 nM.
As for `O=C(Cn1ccnc(NC2CCN(Cc3ccc4ccccc4c3)CC2)c1=O)NCc1ccc(F)cc1` [1-66], the IC50 on 5HT-transporter is 63.1 nM; in experiment [1], 316 nM; in experiment [2], 12.6 nM.
Taken in the same sequence, the figures for `O=c1c(NC2CCN(Cc3ccc4ccccc4c3)CC2)nccn1CCCNCc1ccccc1` [1-67] were 158 nM, 631 nM and 25.1 nM.
Taken in the same sequence, the figures for `O=C(Cn1ccnc(NC2CCN(Cc3ccc4ccccc4c3)CC2)c1=O)NCc1ccccc1` [1-68] were 158 nM, 200 nM and 20 nM.
The matching figures for `CN(Cc1ccccc1)C(=O)Cn1ccnc(NC2CCN(Cc3ccc4ccccc4c3)CC2)c1=O` [1-69]: 50.1 nM, 200 nM and 20 nM.
On to `CN(Cc1ccccc1)Cc1ccc(-n2ccnc(NC3CCN(Cc4ccc5ccccc5c4)CC3)c2=O)cc1` [1-70], for which the “h-5HTT pIC50” value on 5HT-transporter amounted to 8.0. The “h-α2A pIC50” value in experiment [1] is on record as 6.5. The “h-α2C pIC50” value in experiment [2] was found to be 7.5.
Turning to `O=C(Cn1ccnc(NC2CCN(Cc3ccc4ccccc4c3)CC2)c1=O)NCCc1ccccc1` [1-71], the IC50 at 5HT-transporter is 126 nM; in experiment [1], 316 nM; in experiment [2], 20 nM.
`O=C(Cn1ccnc(NC2CCN(Cc3ccc4ccccc4c3)CC2)c1=O)NCCCc1ccccc1` [1-72]: the IC50 on 5HT-transporter was 63.1 nM; in experiment [1], 200 nM; in experiment [2], 31.6 nM.
Taken in the same sequence, the figures for `CC(C)(Cc1ccccc1)NC(=O)Cn1ccnc(NC2CCN(Cc3ccc4ccccc4c3)CC2)c1=O` [1-73] were 158 nM, 398 nM and 39.8 nM.
`O=C(NCCCn1ccnc(NC2CCN(Cc3ccc4ccccc4c3)CC2)c1=O)c1ccccc1` [1-74]: the IC50 is 126 nM on 5HT-transporter, 794 nM in experiment [1] and 31.6 nM in experiment [2].
Turning to `O=C(Nc1cccc(-n2ccnc(NC3CCN(Cc4ccc5ccccc5c4)CC3)c2=O)c1)c1ccc(F)cc1` [1-75], the IC50 on 5HT-transporter is 3.98 nM; in experiment [1], 100 nM; in experiment [2], 63.1 nM.
For `O=C(NCc1ccc(-n2ccnc(NC3CCN(Cc4ccc5ccccc5c4)CC3)c2=O)cc1)c1ccc(F)cc1` [1-76], at 5HT-transporter, the “h-5HTT pIC50” value is recorded as 8.2. Moreover, in experiment [1], the “h-α2A pIC50” value is recorded as 6.2. Moreover, the “h-α2C pIC50” value in experiment [2] came to 8.1.
On to `O=c1c(NC2CCN(Cc3ccc4ccccc4c3)CC2)nccn1CCCNCCOc1ccccc1` [1-77], for which the IC50 on 5HT-transporter was 63.1 nM; in experiment [1], 398 nM; in experiment [2], 25.1 nM.
`O=c1c(NC2CCN(Cc3ccc4ccccc4c3)CC2)nccn1-c1ccc(CNCC2CCCO2)c(F)c1` (stereo not drawn) [1-80]: the values for the IC50 (on 5HT-transporter; in experiment [1]; in experiment [2]) were 3.16 nM, 251 nM and 2.51 nM, respectively.
The matching figures for `O=C(Cn1ccnc(NC2CCN(Cc3ccc4ccccc4c3)CC2)c1=O)NCc1ccco1` [1-81]: 631 nM, 158 nM and 31.6 nM.
